The values that follow come from US12018229B2, “Organic compounds” (Givaudan SA, priority 2018, dated 2024).

This assay is described as follows: Determination of GC-odor threshold values (gas chromatograph with sniff port, panel of trained evaluators). The conditions noted are these: absolute amount of compound delivered at the sniff port, identical conditions. How it is done: According to standard procedures known to the person skilled in the art, threshold values for volatile perfumery compounds are determined on a gas chromatograph equipped with a sniff port by a panel of trained evaluators. The lowest concentration smelled by each panelist is recorded as the individual threshold value expressed in ng (absolute amount of compound delivered at the sniff port).
Under identical conditions the odor threshold value for the individual compounds was measured.
For `CC1=CCOC(CCCc2ccccc2)C1` (centres unmarked) [Example 1, 4-Methyl-2-(3-phenylpropyl)-3,6-dihydro-2H-pyran], the odor threshold value amounted to 0.02 ng. In the case of `CC1=CC(C)OC(CCCc2ccccc2)C1` (centres unmarked) [Example 2, 4,6-Dimethyl-2-(3-phenylpropyl)-3,6-dihydro-2H-pyran], the odor threshold value was found to be 0.03 ng.

On to `CC1=CCOC(Cc2ccccc2)C1` (centres unmarked) [Example 3, 2-Benzyl-4-methyl-3,6-dihydro-2H-pyran], for which the odor threshold value is given as 0.03 ng. Then `CC1=CCOC(CCCCc2ccccc2)C1` (centres unmarked) [Example 4, 4-Methyl-2-(4-phenylbutyl)-3,6-dihydro-2H-pyran, reference compound], with 63 ng; and `CC1=CCOC(CCc2ccccc2)C1` (centres unmarked) [Example 5, 4-Methyl-2-phenethyl-3,6-dihydro-2H-pyran, reference compound], with 45 ng.
